# Results as given in US7067508B2, “Diaminedithiol derivatives and radiorhenium or radiotechnetium complex thereof; a liver cancer-treating composition comprising the radiorhenium complex and lipiodol; and a kit for preparation of the liver cancer-treating composition” (Seoul National University Industry Foundation, priority 2001, dated 2006).
# Assay: Biodistribution of 188Re-labelled compounds in lipiodol solution in mice after tail vein injection
# Format: in vivo
# Settings: mice (ICR)
# Experimental: To the ^188Re-labelled reaction mixture prepared in the foregoing Examples 4 to 6, lipiodol (5 ml) was added, mixed well and the solution was centrifuged at 3000 rpm for 10 min. The supernatant was removed and 2 ml saline was added. After mixing well, the resulting solution was centrifuged again at 3000 rpm for 10 min and the supernatant was removed to recover a lower phase of lipiodol.
# Mice (ICR) were administered with an injection of ^188Re-labelled compound in lipiodol solution which was prepared in the Example 7 via the tail vein. Radioactivity distributed in tissues and weight of each tissue were measured to calculate the percentage of radioactivity per gram of unit tissue relative to total radioactivity administered.
# As radiation accumulation mechanism in the lung and the liver cancer are similar, it is convenient to detect the level of radiation accumulating in the lung of a mouse suffering from liver cancer. […] Therefore, it can be inferred that a radiorhenium complex of a diaminedithiol derivative having a long side chain is effective for treating liver cancer.
smiles,measurement,setting,value
CCCCCCCCCCCC[N+]12CC[N]3CC(C)(C)[S][188Re-]31(=[O])[S]C(C)(C)C2 (stereo not shown) [^188Re-DTDD],"Biodistribution, radioactivity in Blood",10 min post-injection,13.0 ± 0.6 percentage of radioactivity per gram
same,"Biodistribution, radioactivity in Fat",10 min post-injection,5.5 ± 0.4 percentage of radioactivity per gram
same,"Biodistribution, radioactivity in Heart",10 min post-injection,9.1 ± 2.3 percentage of radioactivity per gram
same,"Biodistribution, radioactivity in Kidney",10 min post-injection,9.9 ± 0.7 percentage of radioactivity per gram
same,"Biodistribution, radioactivity in Liver",10 min post-injection,14.9 ± 0.7 percentage of radioactivity per gram
same,"Biodistribution, radioactivity in Lung",10 min post-injection,137.4 ± 13.1 percentage of radioactivity per gram
same,"Biodistribution, radioactivity in Muscle",10 min post-injection,2.4 ± 0.1 percentage of radioactivity per gram
same,"Biodistribution, radioactivity in Small intestine",10 min post-injection,4.8 ± 0.3 percentage of radioactivity per gram
same,"Biodistribution, radioactivity in Spleen",10 min post-injection,5.6 ± 0.3 percentage of radioactivity per gram
same,"Biodistribution, radioactivity in Stomach",10 min post-injection,18.3 ± 4.4 percentage of radioactivity per gram
same,"Biodistribution, radioactivity in Blood",30 min post-injection,9.5 ± 1.1 percentage of radioactivity per gram
same,"Biodistribution, radioactivity in Fat",30 min post-injection,4.4 ± 0.8 percentage of radioactivity per gram
same,"Biodistribution, radioactivity in Heart",30 min post-injection,5.0 ± 0.9 percentage of radioactivity per gram
same,"Biodistribution, radioactivity in Kidney",30 min post-injection,7.4 ± 0.5 percentage of radioactivity per gram
same,"Biodistribution, radioactivity in Liver",30 min post-injection,14.6 ± 2.2 percentage of radioactivity per gram
same,"Biodistribution, radioactivity in Lung",30 min post-injection,85.1 ± 7.1 percentage of radioactivity per gram
same,"Biodistribution, radioactivity in Muscle",30 min post-injection,2.0 ± 0.2 percentage of radioactivity per gram
same,"Biodistribution, radioactivity in Small intestine",30 min post-injection,8.3 ± 0.7 percentage of radioactivity per gram
same,"Biodistribution, radioactivity in Spleen",30 min post-injection,4.8 ± 0.4 percentage of radioactivity per gram
same,"Biodistribution, radioactivity in Stomach",30 min post-injection,36.0 ± 5.9 percentage of radioactivity per gram
same,"Biodistribution, radioactivity in Blood",1 hr post-injection,7.0 ± 0.8 percentage of radioactivity per gram
same,"Biodistribution, radioactivity in Fat",1 hr post-injection,4.1 ± 0.6 percentage of radioactivity per gram
same,"Biodistribution, radioactivity in Heart",1 hr post-injection,5.5 ± 0.4 percentage of radioactivity per gram
same,"Biodistribution, radioactivity in Kidney",1 hr post-injection,6.2 ± 0.7 percentage of radioactivity per gram
same,"Biodistribution, radioactivity in Liver",1 hr post-injection,13.2 ± 2.8 percentage of radioactivity per gram
same,"Biodistribution, radioactivity in Lung",1 hr post-injection,82.2 ± 15.1 percentage of radioactivity per gram
same,"Biodistribution, radioactivity in Muscle",1 hr post-injection,1.5 ± 0.3 percentage of radioactivity per gram
same,"Biodistribution, radioactivity in Small intestine",1 hr post-injection,9.7 ± 1.2 percentage of radioactivity per gram
same,"Biodistribution, radioactivity in Spleen",1 hr post-injection,3.5 ± 0.5 percentage of radioactivity per gram
same,"Biodistribution, radioactivity in Stomach",1 hr post-injection,49.2 ± 7.0 percentage of radioactivity per gram
same,"Biodistribution, radioactivity in Blood",3 hr post-injection,5.1 ± 1.2 percentage of radioactivity per gram
same,"Biodistribution, radioactivity in Fat",3 hr post-injection,2.4 ± 0.4 percentage of radioactivity per gram
same,"Biodistribution, radioactivity in Heart",3 hr post-injection,2.7 ± 0.7 percentage of radioactivity per gram
same,"Biodistribution, radioactivity in Kidney",3 hr post-injection,5.2 ± 0.7 percentage of radioactivity per gram
same,"Biodistribution, radioactivity in Liver",3 hr post-injection,7.7 ± 0.6 percentage of radioactivity per gram
same,"Biodistribution, radioactivity in Lung",3 hr post-injection,61.9 ± 10.3 percentage of radioactivity per gram
same,"Biodistribution, radioactivity in Muscle",3 hr post-injection,1.0 ± 0.2 percentage of radioactivity per gram
same,"Biodistribution, radioactivity in Small intestine",3 hr post-injection,11.6 ± 0.3 percentage of radioactivity per gram
same,"Biodistribution, radioactivity in Spleen",3 hr post-injection,2.9 ± 0.6 percentage of radioactivity per gram
same,"Biodistribution, radioactivity in Stomach",3 hr post-injection,37.7 ± 12.3 percentage of radioactivity per gram
same,"Biodistribution, radioactivity in Blood",24 hr post-injection,0.6 ± 0.2 percentage of radioactivity per gram
same,"Biodistribution, radioactivity in Fat",24 hr post-injection,0.6 ± 0.2 percentage of radioactivity per gram
same,"Biodistribution, radioactivity in Heart",24 hr post-injection,1.5 ± 0.3 percentage of radioactivity per gram
same,"Biodistribution, radioactivity in Kidney",24 hr post-injection,1.9 ± 0.3 percentage of radioactivity per gram
same,"Biodistribution, radioactivity in Liver",24 hr post-injection,3.3 ± 1.1 percentage of radioactivity per gram
same,"Biodistribution, radioactivity in Lung",24 hr post-injection,47.2 ± 9.2 percentage of radioactivity per gram
same,"Biodistribution, radioactivity in Muscle",24 hr post-injection,0.3 ± 0.0 percentage of radioactivity per gram
same,"Biodistribution, radioactivity in Small intestine",24 hr post-injection,9.2 ± 6.9 percentage of radioactivity per gram
same,"Biodistribution, radioactivity in Spleen",24 hr post-injection,3.3 ± 1.0 percentage of radioactivity per gram
same,"Biodistribution, radioactivity in Stomach",24 hr post-injection,5.4 ± 1.6 percentage of radioactivity per gram
CCCCCCCCCCCCCCCC[N+]12CC[N]3CC(C)(C)[S][188Re-]31(=[O])[S]C(C)(C)C2 (stereo not shown) [^188Re-HTDD],"Biodistribution, radioactivity in Blood",10 min post-injection,8.1 ± 1.5 percentage of radioactivity per gram
same,"Biodistribution, radioactivity in Fat",10 min post-injection,3.9 ± 1.5 percentage of radioactivity per gram
same,"Biodistribution, radioactivity in Heart",10 min post-injection,9.4 ± 3.0 percentage of radioactivity per gram
same,"Biodistribution, radioactivity in Kidney",10 min post-injection,7.0 ± 1.8 percentage of radioactivity per gram
same,"Biodistribution, radioactivity in Liver",10 min post-injection,11.6 ± 1.7 percentage of radioactivity per gram
same,"Biodistribution, radioactivity in Lung",10 min post-injection,211.3 ± 30.0 percentage of radioactivity per gram
same,"Biodistribution, radioactivity in Muscle",10 min post-injection,1.9 ± 0.3 percentage of radioactivity per gram
same,"Biodistribution, radioactivity in Small intestine",10 min post-injection,3.4 ± 0.5 percentage of radioactivity per gram
same,"Biodistribution, radioactivity in Spleen",10 min post-injection,3.6 ± 0.8 percentage of radioactivity per gram
same,"Biodistribution, radioactivity in Stomach",10 min post-injection,7.4 ± 1.6 percentage of radioactivity per gram
same,"Biodistribution, radioactivity in Blood",30 min post-injection,9.1 ± 5.3 percentage of radioactivity per gram
same,"Biodistribution, radioactivity in Fat",30 min post-injection,2.8 ± 0.5 percentage of radioactivity per gram
same,"Biodistribution, radioactivity in Heart",30 min post-injection,6.0 ± 1.1 percentage of radioactivity per gram
same,"Biodistribution, radioactivity in Kidney",30 min post-injection,6.5 ± 0.9 percentage of radioactivity per gram
same,"Biodistribution, radioactivity in Liver",30 min post-injection,15.9 ± 1.6 percentage of radioactivity per gram
same,"Biodistribution, radioactivity in Lung",30 min post-injection,185.6 ± 20.9 percentage of radioactivity per gram
same,"Biodistribution, radioactivity in Muscle",30 min post-injection,1.5 ± 0.2 percentage of radioactivity per gram
same,"Biodistribution, radioactivity in Small intestine",30 min post-injection,6.5 ± 0.6 percentage of radioactivity per gram
same,"Biodistribution, radioactivity in Spleen",30 min post-injection,3.1 ± 0.2 percentage of radioactivity per gram
same,"Biodistribution, radioactivity in Stomach",30 min post-injection,15.1 ± 2.9 percentage of radioactivity per gram
same,"Biodistribution, radioactivity in Blood",1 hr post-injection,4.2 ± 0.5 percentage of radioactivity per gram
same,"Biodistribution, radioactivity in Fat",1 hr post-injection,2.7 ± 0.6 percentage of radioactivity per gram
same,"Biodistribution, radioactivity in Heart",1 hr post-injection,4.7 ± 0.9 percentage of radioactivity per gram
same,"Biodistribution, radioactivity in Kidney",1 hr post-injection,6.1 ± 1.4 percentage of radioactivity per gram
same,"Biodistribution, radioactivity in Liver",1 hr post-injection,14.4 ± 2.5 percentage of radioactivity per gram
same,"Biodistribution, radioactivity in Lung",1 hr post-injection,177.8 ± 18.4 percentage of radioactivity per gram
same,"Biodistribution, radioactivity in Muscle",1 hr post-injection,1.1 ± 0.2 percentage of radioactivity per gram
same,"Biodistribution, radioactivity in Small intestine",1 hr post-injection,9.3 ± 1.0 percentage of radioactivity per gram
same,"Biodistribution, radioactivity in Spleen",1 hr post-injection,3.0 ± 0.8 percentage of radioactivity per gram
same,"Biodistribution, radioactivity in Stomach",1 hr post-injection,21.0 ± 1.7 percentage of radioactivity per gram
same,"Biodistribution, radioactivity in Blood",3 hr post-injection,2.8 ± 0.5 percentage of radioactivity per gram
same,"Biodistribution, radioactivity in Fat",3 hr post-injection,2.0 ± 0.6 percentage of radioactivity per gram
same,"Biodistribution, radioactivity in Heart",3 hr post-injection,4.5 ± 0.8 percentage of radioactivity per gram
same,"Biodistribution, radioactivity in Kidney",3 hr post-injection,6.2 ± 1.2 percentage of radioactivity per gram
same,"Biodistribution, radioactivity in Liver",3 hr post-injection,9.0 ± 1.8 percentage of radioactivity per gram
same,"Biodistribution, radioactivity in Lung",3 hr post-injection,157.3 ± 28.6 percentage of radioactivity per gram
same,"Biodistribution, radioactivity in Muscle",3 hr post-injection,0.8 ± 0.2 percentage of radioactivity per gram
same,"Biodistribution, radioactivity in Small intestine",3 hr post-injection,12.2 ± 1.3 percentage of radioactivity per gram
same,"Biodistribution, radioactivity in Spleen",3 hr post-injection,2.7 ± 0.1 percentage of radioactivity per gram
same,"Biodistribution, radioactivity in Stomach",3 hr post-injection,19.3 ± 4.0 percentage of radioactivity per gram
same,"Biodistribution, radioactivity in Blood",24 hr post-injection,0.6 ± 0.1 percentage of radioactivity per gram
same,"Biodistribution, radioactivity in Fat",24 hr post-injection,0.8 ± 0.3 percentage of radioactivity per gram
same,"Biodistribution, radioactivity in Heart",24 hr post-injection,2.2 ± 0.8 percentage of radioactivity per gram
same,"Biodistribution, radioactivity in Kidney",24 hr post-injection,3.3 ± 0.7 percentage of radioactivity per gram
same,"Biodistribution, radioactivity in Liver",24 hr post-injection,5.6 ± 1.0 percentage of radioactivity per gram
same,"Biodistribution, radioactivity in Lung",24 hr post-injection,118.0 ± 19.5 percentage of radioactivity per gram
same,"Biodistribution, radioactivity in Muscle",24 hr post-injection,0.4 ± 0.1 percentage of radioactivity per gram
same,"Biodistribution, radioactivity in Small intestine",24 hr post-injection,6.2 ± 3.4 percentage of radioactivity per gram
same,"Biodistribution, radioactivity in Spleen",24 hr post-injection,9.3 ± 5.2 percentage of radioactivity per gram
same,"Biodistribution, radioactivity in Stomach",24 hr post-injection,5.5 ± 1.7 percentage of radioactivity per gram
